In patent US20090035364A1, “PARA-SUBSTITUTED 2-ALKOXYPHENOL COMPOUNDS” (priority 2006, published 2009):

Columns and labels:
[1] = Cooling intensity: panelists taste aqueous solutions, compared with menthol at 2 ppm; type: in vivo, human; conditions: tasted by a small group of panelists
[2] = Application in toothpaste: panelist's teeth brushed with toothgel containing the compound; type: in vivo, human; conditions: 0.10 g of 10% solution in ethanol in opaque toothgel with peppermint oil and saccharin; after brushing and rinsing
Method: The chemicals are mixed in the toothgel, a piece of toothgel is put on a toothbrush and a panelist's teeth are brushed. The mouth is rinsed with water and the water is spat out. […] The cooling perception lasts for 45 minutes.

SMILES	Concentration having a cooling intensity similar to or slightly higher than that of a solution of menthol at 2 ppm [1] [ppm]	melting point [°C]	other results
COc1cc(CNC(c2ccccc2)c2ccccc2)ccc1O [Example 1, 4-((benzhydrylamino)methyl)-2-methoxyphenol]	0.5		
CC1CCC(C(C)C)C(O)C1 (centres unmarked) [I-Menthol, reference compound]	2.0		
CCNC(=O)C1CC(C)CCC1C(C)C (centres unmarked) [N-ethyl p-menthanecarboxamide (WS-3), N-ethyl p-menthanecarboxamide, reference compound]	1.5		
COc1cc(COC(c2ccccc2)c2ccccc2)ccc1O [Example 4, 4-((benzhydryloxy)methyl)-2-methoxyphenol]	1.0		Cooling sensation felt by the panelist [2]: intense cooling sensation; Duration of cooling perception [2]: 45 min
COc1cc(CNC2c3ccccc3-c3ccccc32)ccc1O [Example 5, 4-((9H-fluoren-9-ylamino)methyl)-2-methoxyphenol]		148 to 150	
CCOc1cc(CNC(c2ccccc2)c2ccccc2)ccc1O [Example 6, 4-((benzhydrylamino)methyl)-2-ethoxyphenol]		89 to 91	
